Reference: patent US6444617B1, “Fused-heterocycle dicarboxylic acid diamide derivatives or salts thereof, herbicide and usage thereof” (Nihon Nohyaku Co., Ltd., priority 1998, dated 2002)

What was measured:
Assay type in all cases: in vivo
[1] = system: barnyard grass (Echinochloa crus-galli Beauv.); test: Test Example 1: herbicidal effect on paddy field weeds before emergence; settings: Dosage 5 kg/ha
Outline: (§1)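 Grading reflects percent control relative to untreated plots, evaluated three weeks post-application. Treatment was a soil application of compound solution, predetermined dose, made to paddy-state pots before weed seeds germinated.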

[2] = system: bulrush (Scirpus juncoides Roxb.); test: as above; settings: Dosage 5 kg/ha
Outline: as §1

[3] = system: barnyard grass (Echinochloa crus-galli Beauv.); test: Test Example 2: herbicidal effect on paddy field weeds after emergence; settings: Dosage 5 kg/ha; one-leaved stage; 21 days after treatment
Outline: (§2)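 Weeds were sown in 1/10000 are pots of soil flooded to paddy conditions and grown to the one-leaf stage, then the soil was treated with a solution of compound at a predetermined dosage.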

[4] = system: bulrush (Scirpus juncoides Roxb.); test: as above; settings: Dosage 5 kg/ha; one-leaved stage; 21 days after treatment
Outline: as §2

[5] = system: monochoria (Monochoria vaginalis Presl); test: as above; settings: Dosage 5 kg/ha; one-leaved stage; 21 days after treatment
Outline: as §2

[6] = system: barnyard grass (Echinochloa crus-galli Beauv.), Ec; test: Test Example 3: herbicidal effect on upland weeds before emergence; settings: dosage 5 kg/ha
Outline: (§3)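 Test compound, formulated as a liquid at a fixed concentration, is sprayed before weed emergence. Two weeks later, kill rate is derived and herbicidal activity is rated.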

[7] = system: bird's eye speedwell (Veronica persica Poir.), Vp; test: as above; settings: dosage 5 kg/ha
Outline: as §3

[8] = system: cleavers (Galium aparine L.), Ga; test: as above; settings: dosage 5 kg/ha
Outline: as §3

[9] = system: cocklebur (Xanthium strumarium L.), Xs; test: as above; settings: dosage 5 kg/ha
Outline: as §3

[10] = system: forxtail grass (Alopecurus aequalis var. amurensis Ohwi), Am; test: as above; settings: foxtail grass, dosage 5 kg/ha
Outline: as §3

[11] = system: velvetleaf (Abutilon theophtasti L.), At; test: as above; settings: dosage 5 kg/ha
Outline: as §3

soybean plant (So) = test: Test Example 3: phytotoxicity to upland crop plants, treatment before emergence; settings: dosage 5 kg/ha
Outline: (§4)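 Crop injury to soybean and wheat was judged on a phytotoxicity scale 14 days after a pre-emergence spray of a liquid formulation at a prescribed concentration of compound.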

wheat (Wh) = test: as above; settings: dosage 5 kg/ha
Outline: as §4

[12] = system: barnyard grass (Echinochloa crus-galli Beauv.), Ec; test: Test Example 4: herbicidal effect on upland weeds after emergence; settings: dosage 5 kg/ha; sprayed after emergence; judged 14 days after treatment
Outline: (§5)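 Post-emergence foliar spray at a prescribed concentration, applied once the sown weeds and soybean reached defined leaf stages in soil vats; herbicidal effect and soybean injury scored after 14 days.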

[13] = system: bird's eye speedwell (Veronica persica Poir.), Vp; test: as above; settings: dosage 5 kg/ha; sprayed after emergence; judged 14 days after treatment
Outline: as §5

[14] = system: cleavers (Galium aparine L.), Ga; test: as above; settings: dosage 5 kg/ha; sprayed after emergence; judged 14 days after treatment
Outline: as §5

[15] = system: cocklebur (Xanthium strumarium L.), Xs; test: as above; settings: dosage 5 kg/ha; sprayed after emergence; judged 14 days after treatment
Outline: as §5

[16] = system: forxtail grass (Alopecurus aequalis var. amurensis Ohwi), Am; test: as above; settings: dosage 5 kg/ha; sprayed after emergence; judged 14 days after treatment
Outline: as §5

[17] = system: velvetleaf (Abutilon theophtasti L.), At; test: as above; settings: dosage 5 kg/ha; sprayed after emergence; judged 14 days after treatment
Outline: as §5

soybean plant = test: Test Example 4: phytotoxicity to upland crop plants, treatment after emergence; settings: dosage 5 kg/ha, sprayed after emergence, judged 14 days after treatment
Outline: as §5

wheat = test: as above; settings: dosage 5 kg/ha, sprayed after emergence, judged 14 days after treatment
Outline: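 Seeds sown in soil and covered. Plants raised to specified leaf stages. Agent with test compound at a prescribed concentration sprayed. Herbicidal effect and crop damage scored after 14 days as weed-killing rate.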

Row | SMILES | Pre-emergence treatment Barnyard grass (herbicidal effect) [1] | Pre-emergence treatment Bulrush (herbicidal effect) [2] | Post-emergence treatment Barnyard grass (herbicidal effect) [3] | Post-emergence treatment Bulrush (herbicidal effect) [4] | Post-emergence treatment Monochoria (herbicidal effect) [5] | Herbicidal effect Ec [6] | Herbicidal effect Vp [7] | Herbicidal effect Ga [8] | Herbicidal effect Xs [9] | Herbicidal effect Am [10] | Herbicidal effect At [11] | Phytotoxicity So (soybean plant (So)) | Phytotoxicity Wh (wheat (Wh)) | Herbicidal effect Ec [12] | Herbicidal effect Vp [13] | Herbicidal effect Ga [14] | Herbicidal effect Xs [15] | Herbicidal effect Am [16] | Herbicidal effect At [17] | Phytotoxicity So (soybean plant) | other results
1 | CCNC(=O)c1nc2ccc(OC)cc2cc1C(=O)Nc1c(CC)ccc(Cl)c1CC [compound 289] | 5 (Weed-killing rate is 100%.) | 5 (Weed-killing rate is 100%.) | 5 (Weed-killing rate is 100%.) | 4 (Weed-killing rate is 90-99%.) | 5 (Weed-killing rate is 100%.) | 5 (Weed-killing rate is 100%.) | 5 (Weed-killing rate is 100%.) | 4 (Weed-killing rate is 90-99%.) | 3 (Weed-killing rate is 70-89%.) | 4 (Weed-killing rate is 90-99%.) | 5 (Weed-killing rate is 100%.) | 1 (Crop-killing rate is 1-39%.) | 2 (Crop-killing rate is 40-69%.) | 5 (Weed-killing rate is 100%.) | 5 (Weed-killing rate is 100%.) | 4 (Weed-killing rate is 90-99%.) | 3 (Weed-killing rate is 70-89%.) | 4 (Weed-killing rate is 90-99%.) | 5 (Weed-killing rate is 100%.) | 1 (Crop-killing rate is 1-39%.) | Phytotoxicity Wh (wheat): 2 (Crop-killing rate is 40-69%.)
2 | CCCNC(=O)c1nc2ccc(OC)cc2cc1C(=O)Nc1c(CC)ccc(Cl)c1CC [compound 290] | 5 (Weed-killing rate is 100%.) | 5 (Weed-killing rate is 100%.) | 5 (Weed-killing rate is 100%.) | 5 (Weed-killing rate is 100%.) | 5 (Weed-killing rate is 100%.) | 5 (Weed-killing rate is 100%.) | 5 (Weed-killing rate is 100%.) | 5 (Weed-killing rate is 100%.) | 4 (Weed-killing rate is 90-99%.) | 5 (Weed-killing rate is 100%.) | 5 (Weed-killing rate is 100%.) | 1 (Crop-killing rate is 1-39%.) | 2 (Crop-killing rate is 40-69%.) | 5 (Weed-killing rate is 100%.) | 5 (Weed-killing rate is 100%.) | 5 (Weed-killing rate is 100%.) | 4 (Weed-killing rate is 90-99%.) | 5 (Weed-killing rate is 100%.) | 5 (Weed-killing rate is 100%.) | 2 (Crop-killing rate is 40-69%.) | Phytotoxicity Wh (wheat): 3 (Crop-killing rate is 70-89%.)
3 | CCc1ccc(Cl)c(CC)c1NC(=O)c1cc2cc(OC)ccc2nc1C(=O)NOC(C)C [compound 291] | 5 (Weed-killing rate is 100%.) | 4 (Weed-killing rate is 90-99%.) | 5 (Weed-killing rate is 100%.) | 4 (Weed-killing rate is 90-99%.) | 5 (Weed-killing rate is 100%.) | 5 (Weed-killing rate is 100%.) | 5 (Weed-killing rate is 100%.) | 5 (Weed-killing rate is 100%.) | 4 (Weed-killing rate is 90-99%.) | 4 (Weed-killing rate is 90-99%.) | 5 (Weed-killing rate is 100%.) | 0 (Crop-killing rate is 0-20% (No Phytotoxicity).) | 1 (Crop-killing rate is 1-39%.) | 5 (Weed-killing rate is 100%.) | 5 (Weed-killing rate is 100%.) | 4 (Weed-killing rate is 90-99%.) | 4 (Weed-killing rate is 90-99%.) | 4 (Weed-killing rate is 90-99%.) | 5 (Weed-killing rate is 100%.) | 2 (Crop-killing rate is 40-69%.) | Phytotoxicity Wh (wheat): 2 (Crop-killing rate is 40-69%.)
4 | CCCNC(=O)c1nc2cc(OC)c(OC)cc2cc1C(=O)Nc1c(CC)ccc(Cl)c1CC [compound 305] | 5 (Weed-killing rate is 100%.) | 4 (Weed-killing rate is 90-99%.) | 4 (Weed-killing rate is 90-99%.) | 3 (Weed-killing rate is 70-89%.) | 5 (Weed-killing rate is 100%.) | 5 (Weed-killing rate is 100%.) | 4 (Weed-killing rate is 90-99%.) | 3 (Weed-killing rate is 70-89%.) | 3 (Weed-killing rate is 70-89%.) | 4 (Weed-killing rate is 90-99%.) | 4 (Weed-killing rate is 90-99%.) | 0 (Crop-killing rate is 0-20% (No Phytotoxicity).) | 2 (Crop-killing rate is 40-69%.) | 4 (Weed-killing rate is 90-99%.) | 4 (Weed-killing rate is 90-99%.) | 2 (Weed-killing rate is 40-69%.) | 2 (Weed-killing rate is 40-69%.) | 3 (Weed-killing rate is 70-89%.) | 4 (Weed-killing rate is 90-99%.) | 1 (Crop-killing rate is 1-39%.) | Phytotoxicity Wh (wheat): 2 (Crop-killing rate is 40-69%.)
5 | CCc1ccc(Cl)c(CC)c1NC(=O)c1cc2cc(OC)c(OC)cc2nc1C(=O)NCC(C)C [compound 310] | 4 (Weed-killing rate is 90-99%.) | 3 (Weed-killing rate is 70-89%.) | 3 (Weed-killing rate is 70-89%.) | 2 (Weed-killing rate is 40-69%.) | 5 (Weed-killing rate is 100%.) | 4 (Weed-killing rate is 90-99%.) | 4 (Weed-killing rate is 90-99%.) | 3 (Weed-killing rate is 70-89%.) | 3 (Weed-killing rate is 70-89%.) | 4 (Weed-killing rate is 90-99%.) | 4 (Weed-killing rate is 90-99%.) | 0 (Crop-killing rate is 0-20% (No Phytotoxicity).) | 2 (Crop-killing rate is 40-69%.) | 4 (Weed-killing rate is 90-99%.) | 3 (Weed-killing rate is 70-89%.) | 2 (Weed-killing rate is 40-69%.) | 3 (Weed-killing rate is 70-89%.) | 3 (Weed-killing rate is 70-89%.) | 4 (Weed-killing rate is 90-99%.) | 0 (Crop-killing rate is 0-20% (No Phytotoxicity).) | Phytotoxicity Wh (wheat): 2 (Crop-killing rate is 40-69%.)
